Data taken from patent US20190274303A1, “USE OF A DIFLUORO-(2-HYDROXYPROPYL)PYRIDINE COMPOUND AS A FUNGICIDE FOR CONTROL OF PHYTOPATHOGENIC FUNGI OF BARLEY” (Dow AgroSciences LLC, priority 2016, published 2019).

Legend:
Type in all cases: in vivo
Puccinia hordei (PUCCHD) = assay: Field assessment of barley rust; details: for Percent Control PUCCHD: based on AUDPC, winter barley, field
Protocol: Field Assessment of Puccinia hordei (PUCCHD) in Barley:
(§1) A fungicidal treatment containing Compound I was assessed against barley rust (PUCCHD) in two separate field trials. In each trial, fungicidal treatments of Compound I were applied using two separate adjuvant systems. In the first system, an EC formulation of compound I was tank mixed with Agnique BP-420 (50%) at an active:adjuvant ratio of 1:2. The second adjuvant system was an SC formulation of Compound I tank mixed with Agnique BP-420 EW (38.5%) at an active:adjuvant ratio of 1:2 and Agnique FOH TDA-9 (30% w/w) applied at 0.33% V/V. Both the EC and SC formulation was sprayed on barley plants at rates of 25, 50, 75, 100, 150, 200 and 250 grams active ingredient per hectare (g ai/ha). Fungicidal treatments were applied at B39 (early curative, 1% infection on leaf 1) growth stage of winter barley (HORVW, Maris Otter and Lomerit variety) under natural infection of PUCCHD. The treatment was part of an experimental trial designed as a randomized complete block with four replications.
(§2) Disease severity was recorded as a percentage of visual diseased foliage on whole plot. Barley rust infection was recorded following EPPO PP1/26 guideline prescriptions. Area under the disease progress curve (AUDPC) was calculated for each plot using the sets of recorded severity data. Relative AUDPC (% control based on AUDPC) was calculated as percent of the nontreated control.
(§3) In each case of the following Tables, the rating scale of percent control based on AUDPC is as follows: […]

[1] = tested on: Pyrenophora teres (PYRNTE); assay: Field assessment of net blotch of barley; details: for Percent Control PYRNTE: based on AUDPC, barley, field
Protocol: Field Assessment of Pyrenophora teres (PYRNTE) in Barley:
A fungicidal treatment containing Compound I was assessed against net blotch of barley (PYRNTE) in two separate field trials. In each trial, fungicidal treatments of Compound I were applied using two separate adjuvant systems. In the first system, an EC formulation of compound I was tank mixed with Agnique BP-420 (50%) at an active:adjuvant ratio of 1:2. The second adjuvant system was an SC formulation of Compound I tank mixed with Agnique BP-420 EW (38.5%) at an active:adjuvant ratio of 1:2 and Agnique FOH TDA-9 (30% w/w) applied at 0.33% V/V. Both the EC and SC formulation was sprayed on barley plants at rates of 25, 50, 75, 100, 150, 200 and 250 grams active ingredient per hectare (g ai/ha). In the first trial, fungicidal treatments of Compound I were applied at B39 (early curative, 1% infection on leaf 1) growth stage of winter barley (HORVW, Lomerit variety) under natural infection of PYRNTE. The treatment was part of an experimental trial designed as a randomized complete block with four replications. In the second trial, fungicidal treatments of Compound I were applied at B37 (protectant, 1% infection on leaf 4) growth stage of spring barley (HORVS, Scarlett variety) under natural infection of PYRNTE. The treatment was part of an experimental trial designed as a randomized complete block with four replications.
as §2, with “Net blotch of barley” for “Barley rust”
as §3

[2] = tested on: Rhyncosporium secalis (RHYNSE); assay: Field assessment of barley leaf scald, Trial 2 (EC and SC formulations); details: based on AUDPC, winter barley
From the text: as §1, with “Trial 2: Fungicidal” for “A fungicidal treatment containing Compound I was assessed against barley rust (PUCCHD) in two separate field trials. In each trial, fungicidal”, “Otter” for “Otter and Lomerit”, “RHYNSE.” for “PUCCHD.”
as §2, with “leaf scald” for “rust”
as §3

[3] = 25 g ai/ha, EC + Agnique BP-420
[4] = 25 g ai/ha, SC + Agnique BP-420 EW and Agnique FOH TDA-9
[5] = 50 g ai/ha, EC + Agnique BP-420
[6] = 75 g ai/ha, EC + Agnique BP-420
[7] = 75 g ai/ha, SC + Agnique BP-420 EW and Agnique FOH TDA-9
[8] = 100 g ai/ha, EC + Agnique BP-420
[9] = 100 g ai/ha, SC + Agnique BP-420 EW and Agnique FOH TDA-9
[10] = 150 g ai/ha, EC + Agnique BP-420
[11] = 150 g ai/ha, SC + Agnique BP-420 EW and Agnique FOH TDA-9
[12] = 200 g ai/ha, EC + Agnique BP-420
[13] = 200 g ai/ha, SC + Agnique BP-420 EW and Agnique FOH TDA-9
[14] = 250 g ai/ha, EC + Agnique BP-420
[15] = 250 g ai/ha, SC + Agnique BP-420 EW and Agnique FOH TDA-9
[16] = 50 g ai/ha, SC + Agnique BP-420 EW and Agnique FOH TDA-9

N#Cc1ccc(Oc2ccc(C(F)(F)C(O)(Cn3ncnc3S)c3ccc(F)cc3F)nc2)cc1 (centres unmarked) [Compound I, 4-((6-(2-(2,4-difluorophenyl)-1,1-difluoro-2-hydroxy-3-(5-mercapto-1H-1,2,4-triazol-1-yl)propyl)pyridin-3-yl)oxy)benzonitrile]
fungicidal effect on Puccinia Hordei (Puccinia hordei (PUCCHD); barley rust, general statement): significant fungicidal effect | Percent Control PUCCHD (Puccinia hordei (PUCCHD); [3]): B (51-74) | Percent Control PUCCHD (Puccinia hordei (PUCCHD); [4]): B (51-74) | Percent Control PUCCHD (Puccinia hordei (PUCCHD); [5]): B (51-74) | Percent Control PUCCHD (Puccinia hordei (PUCCHD); 50 g ai/ha, Sc (SC + Agnique BP-420 EW and Agnique FOH TDA-9)): B (51-74) | Percent Control PUCCHD (Puccinia hordei (PUCCHD); [6]): A (75-100) | Percent Control PUCCHD (Puccinia hordei (PUCCHD); [7]): B (51-74) | Percent Control PUCCHD (Puccinia hordei (PUCCHD); [8]): A (75-100) | Percent Control PUCCHD (Puccinia hordei (PUCCHD); [9]): A (75-100) | Percent Control PUCCHD (Puccinia hordei (PUCCHD); [10]): A (75-100) | Percent Control PUCCHD (Puccinia hordei (PUCCHD); [11]): A (75-100) | Percent Control PUCCHD (Puccinia hordei (PUCCHD); [12]): A (75-100) | Percent Control PUCCHD (Puccinia hordei (PUCCHD); [13]): A (75-100) | Percent Control PUCCHD (Puccinia hordei (PUCCHD); [14]): A (75-100) | Percent Control PUCCHD (Puccinia hordei (PUCCHD); [15]): A (75-100) | Percent Control PYRNTE [1, 3]: D (1-25) | Percent Control PYRNTE [1, 4]: D (1-25) | Percent Control PYRNTE [1, 5]: D (1-25) | Percent Control PYRNTE [1, 16]: D (1-25) | Percent Control PYRNTE [1, 6]: D (1-25) | Percent Control PYRNTE [1, 7]: D (1-25) | Percent Control PYRNTE [1, 8]: D (1-25) | Percent Control PYRNTE [1, 9]: C (26-50) | Percent Control PYRNTE [1, 10]: C (26-50) | Percent Control PYRNTE [1, 11]: C (26-50) | Percent Control PYRNTE [1, 12]: C (26-50) | Percent Control PYRNTE [1, 13]: B (51-74) | Percent Control PYRNTE [1, 14]: B (51-74) | Percent Control PYRNTE [1, 15]: B (51-74) | fungicidal effect on Pyrenophora teres ([1]; net blotch of barley, general statement): significant fungicidal effect | Percent Control RHYNSE [2, 3]: C (26-50) | Percent Control RHYNSE [2, 4]: C (26-50) | Percent Control RHYNSE [2, 5]: C (26-50) | Percent Control RHYNSE [2, 16]: C (26-50) | Percent Control RHYNSE [2, 6]: B (51-74) | Percent Control RHYNSE [2, 7]: C (26-50) | Percent Control RHYNSE [2, 8]: B (51-74) | Percent Control RHYNSE [2, 9]: C (26-50) | Percent Control RHYNSE [2, 10]: B (51-74) | Percent Control RHYNSE [2, 11]: B (51-74) | Percent Control RHYNSE [2, 12]: B (51-74) | Percent Control RHYNSE [2, 13]: B (51-74) | Percent Control RHYNSE [2, 14]: B (51-74) | Percent Control RHYNSE [2, 15]: B (51-74)
